Assay: Stability of the solid form under mass pressure
Assay type: physicochemical
Conditions: mass pressure of 1 ton for 3 minutes
Procedure: Form 3 is characterized by needle to ‘rod-like’ morphology. This morphology may be beneficial for flowability properties. In addition, Form 3 is found to be stable under mass pressure of 1 ton for 3 minutes.

stability under mass pressure: stable
SMILES: Cc1cn2nc(-c3cc(=O)n4cc(N5CCNC6(CC6)C5)ccc4n3)cc(C)c2n1 [Form 3, 7-(4,7-diazaspiro[2.5]octan-7-yl)-2-(2,8-dimethylimidazo[1,2-b]pyridazin-6-yl)-4H-pyrido[1,2-a]pyrimidin-4-one]
